From ChEMBL document CHEMBL5543126, “Combinatorial Ubiquitination REal-time PROteolysis (CURE-PROs): A Modular Platform for Generating Reversible, Self-Assembling Bifunctional Targeted Degraders” (J Med Chem, 2024)
Values belong to the compound of their own block, whether it stands above or below them. The source made the active and inactive calls. The rule behind the calls is not given here.

Assays:
[1] = biological target: T1, von Hippel-Lindau disease tumor suppressor/Bromodomain-containing protein 4 (Homo sapiens, UniProt O60885+P40337); test: (§1) PROTAC activity at BRD4/VHL in human MCF7 cells assessed as induction of BRD4 degradation by measuring residual activity at 300 nM incubated for 24 hrs in presence of 10 uM BRD4 based ligand ((4S)-6-(4-chlorophenyl)-4-(2-(ethylamino)-2-oxoethyl)-1-methyl4Hbenzo[f][1,2,4]triazolo [4,3-a][1,4]diazepin-8-yl)boronic acid by Western blot based Combinatorial Ubiquitination Real-time PROteolysis analysis; type: cell-based
T1 sequence (P40337 whole entry, looked up, other chains not shown): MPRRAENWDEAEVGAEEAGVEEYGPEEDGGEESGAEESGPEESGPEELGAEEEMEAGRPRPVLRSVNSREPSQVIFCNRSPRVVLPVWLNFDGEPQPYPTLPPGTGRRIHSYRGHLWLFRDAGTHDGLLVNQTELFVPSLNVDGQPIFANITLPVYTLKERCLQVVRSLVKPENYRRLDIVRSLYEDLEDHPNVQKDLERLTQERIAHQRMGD

[2] = biological target: T1, von Hippel-Lindau disease tumor suppressor/Bromodomain-containing protein 4; test: as §1, with “100” for “300”; type: cell-based
[3] = biological target: T1, von Hippel-Lindau disease tumor suppressor/Bromodomain-containing protein 4; test: as §1, with “VHL/BRD4” for “BRD4/VHL”, “HEK293” for “human MCF7”, “Tmax” for “residual activity”, “0.3 uM measured every 15 mins” for “300 nM incubated”, “of” for “of 10 uM”, “HiBiT” for “Western blot”; type: cell-based
[4] = biological target: T1, von Hippel-Lindau disease tumor suppressor/Bromodomain-containing protein 4; test: as §1, with “VHL/BRD4” for “BRD4/VHL”, “HEK293” for “human MCF7”, “degradation rate” for “residual activity”, “1 uM measured every 15 mins” for “300 nM incubated”, “of” for “of 10 uM”, “HiBiT” for “Western blot”; type: cell-based
[5] = biological target: T1, von Hippel-Lindau disease tumor suppressor/Bromodomain-containing protein 4; test: as §1, with “VHL/BRD4” for “BRD4/VHL”, “HEK293” for “human MCF7”, “maximal level of degradation” for “residual activity”, “0.3 uM measured every 15 mins” for “300 nM incubated”, “of” for “of 10 uM”, “HiBiT” for “Western blot”; type: cell-based
[6] = biological target: T1, von Hippel-Lindau disease tumor suppressor/Bromodomain-containing protein 4; test: as §1, with “VHL/BRD4” for “BRD4/VHL”, “HEK293” for “human MCF7”, “degradation rate” for “residual activity”, “0.3 uM measured every 15 mins” for “300 nM incubated”, “of” for “of 10 uM”, “HiBiT” for “Western blot”; type: cell-based
[7] = biological target: T1, von Hippel-Lindau disease tumor suppressor/Bromodomain-containing protein 4; test: as §1, with “1 uM” for “300 nM”, “300 nM” for “10 uM”; type: cell-based
[8] = biological target: T1, von Hippel-Lindau disease tumor suppressor/Bromodomain-containing protein 4; test: as §1, with “30” for “300”, “3” for “10”; type: cell-based
[9] = biological target: T1, von Hippel-Lindau disease tumor suppressor/Bromodomain-containing protein 4; test: as §1, with “100” for “300”, “3” for “10”; type: cell-based
[10] = biological target: T1, von Hippel-Lindau disease tumor suppressor/Bromodomain-containing protein 4; test: as §1, with “10 uM” for “300 nM”, “3” for “10”; type: cell-based
[11] = biological target: T1, von Hippel-Lindau disease tumor suppressor/Bromodomain-containing protein 4; test: as §1, with “VHL/BRD4” for “BRD4/VHL”, “HEK293” for “human MCF7”, “degradation rate” for “residual activity”, “3 uM measured every 15 mins” for “300 nM incubated”, “of” for “of 10 uM”, “HiBiT” for “Western blot”; type: cell-based
[12] = biological target: T1, von Hippel-Lindau disease tumor suppressor/Bromodomain-containing protein 4; test: as §1, with “10 uM” for “300 nM”, “1” for “10”; type: cell-based
[13] = biological target: T1, von Hippel-Lindau disease tumor suppressor/Bromodomain-containing protein 4; test: as §1, with “of” for “of 10 uM”; type: cell-based
[14] = biological target: T1, von Hippel-Lindau disease tumor suppressor/Bromodomain-containing protein 4; test: as §1, with “10 uM” for “300 nM”, “100 nM” for “10 uM”; type: cell-based
[15] = biological target: T1, von Hippel-Lindau disease tumor suppressor/Bromodomain-containing protein 4; test: (§2) PROTAC activity at BRD4/VHL in human MCF7 cells assessed as induction of BRD4 degradation by measuring residual activity at 1 uM incubated for 24 hrs in presence of 3 uM VHL based ligand (2S,4R)-1-((S)-2-(2,3-dihydroxybenzamido)-3,3-dimethylbutanoyl)-4-hydroxy-N-(4-(4-methylthiazol-5-yl)benzyl)pyrrolidine-2-carboxamide by Western blot based Combinatorial Ubiquitination Real-time PROteolysis analysis; type: cell-based
[16] = biological target: T1, von Hippel-Lindau disease tumor suppressor/Bromodomain-containing protein 4; test: as §2, with “100 nM” for “1 uM”; type: cell-based
MV4-11 = test: Antitumor activity against human MV4-11 cells xenografted in nude mouse assessed as reduction in BRD4 level in tumor at 10 mg/kg, ip administered for 4 hrs and measured at 9 to 12 hrs in presence of VHL based ligand (2S,4R)-1-((S)-2-(2,3-dihydroxybenzamido)-3,3-dimethylbutanoyl)-4-hydroxy-N-(4-(4-methylthiazol-5-yl)benzyl)pyrrolidine-2-carboxamide; type: functional, organism-based; settings: time 9-12 hrs
[17] = biological target: T1, von Hippel-Lindau disease tumor suppressor/Bromodomain-containing protein 4; test: as §2, with “100 nM” for “1 uM”, “of” for “of 3 uM”; type: cell-based
[18] = biological target: T1, von Hippel-Lindau disease tumor suppressor/Bromodomain-containing protein 4; test: as §2, with “of 10” for “of 3”; type: cell-based
[19] = biological target: T1, von Hippel-Lindau disease tumor suppressor/Bromodomain-containing protein 4; test: PROTAC activity at BRD4/VHL in human MCF7 cells assessed as induction of BRD4 degradation by measuring residual activity at 300 nM incubated for 24 hrs in presence of 10 uM VHL based ligand (2S,4R)-1-((S)-2-(2,3-dihydroxybenzamido)-3,3-dimethylbutanoyl)-4-hydroxy-N-(4-(4-methylthiazol-5-yl)benzyl)pyrrolidine-2-carboxamide by Western blot based Combinatorial Ubiquitination Real-time PROteolysis analysis; type: cell-based
[20] = biological target: T1, von Hippel-Lindau disease tumor suppressor/Bromodomain-containing protein 4; test: as §2, with “100 nM” for “3 uM”; type: cell-based
[21] = biological target: T1, von Hippel-Lindau disease tumor suppressor/Bromodomain-containing protein 4; test: as §2, with “reduction in” for “induction of”, “level” for “degradation by measuring residual activity at 1 uM”, “[…]” for “3 uM VHL”; type: cell-based
[22] = biological target: T1, von Hippel-Lindau disease tumor suppressor/Bromodomain-containing protein 4; test: as §2, with “of” for “of 3 uM”; type: cell-based
[23] = biological target: T1, von Hippel-Lindau disease tumor suppressor/Bromodomain-containing protein 4; test: as §2, with “30 nM” for “1 uM”; type: cell-based

- Activity [1]: 40%
- Activity [2]: 87%
- Tmax [3]: 7.75 h
- Activity [4]: 0.548 h⁻¹
- Emax [5]: 47%
- Activity [6]: 0.144 h⁻¹
- Activity [7]: 48%
- Activity [8]: 90%
- Activity [9]: 74%
- Activity [10]: 7%
- Activity [11]: 0.908 h⁻¹
- Activity [12]: 21%
- Activity [13]: 100%
- Activity [14]: 55%
Structure (SMILES): Cc1ncsc1-c1ccc(CNC(=O)[C@@H]2C[C@@H](O)CN2C(=O)[C@@H](NC(=O)c2cccc(O)c2O)C(C)(C)C)cc1

Structure (SMILES): CCNC(=O)C[C@@H]1N=C(c2ccc(Cl)cc2)c2cc(B(O)O)ccc2-n2c(C)nnc21
- Activity [15]: 22%
- Activity [16]: 74%
- Activity (MV4-11): Active
- Activity [17]: 89%
- Activity [18]: 20%
- Activity [19]: 40%
- Activity [20]: 56%
- Activity [21]: Active
- DC50 [21]: 358 nM
- Activity [22]: 64%
- Activity [23]: 90%
